Experimental data taken from patent publication US8628961B2, “Small molecule antagonists of phosphatidylinositol-3,4,5-triphosphate (PIP3) and uses thereof” (Tufts University, priority 2010, dated 2014).

Experiments:
Akt PH domain [1] = molecular target: T1, Akt PH domain (Homo sapiens (Human), UniProt P31749); assay: PH domain translocation assay (GFP fusion, plasma membrane); assay type: cell-based; conditions: PDGF stimulation
Experimental: Cells were transfected with the corresponding GFP-fusion vectors, serum starved overnight, and incubated with 100 μM PITs or PIT-1 is for 2 hr, followed by stimulation with 100 ng/ml PDGF or 250 ng/ml PMA for 5 min. The translocation was analyzed using fluorescent microscope and was quantitated by counting the number of cells with translocated PH domains in five random fields.
To begin characterizing cellular activity of PITs, a PH domain translocation assay was performed, measuring PIP3-induced association of GFP-fused PH domains with the plasma membrane. […] Varnai P et al. (1999) J Biol Chem 274:10983-9. Several PH-domain-containing proteins, which are known to bind PIP3 specifically and efficiently, were examined. […] Oikawa T et al. (2004) Nat Cell Biol 6:420-6.
Target sequence in this assay (P31749 5-108): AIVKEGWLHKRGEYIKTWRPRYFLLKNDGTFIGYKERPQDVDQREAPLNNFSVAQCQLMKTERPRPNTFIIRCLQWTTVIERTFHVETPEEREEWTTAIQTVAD

[2] = tested on: SV40-transformed mouse adult lung fibroblasts; assay: Viability of Akt1-expressing versus Akt1-3 triple knockout fibroblasts; assay type: cell-based
Source text: Shaughnessy J D (2008) Nature 454:172-3; Weinstein I G (2002) Science 297:63-4. Therefore, the possibility that PIT-1 may cause preferential cell death in the cells containing elevated PIP3 levels was examined. […] Li D M et al. (1998) Proc Natl Acad Sci USA 95:15406-11. […] Neshat M S et al. (2001) Proc Natl Acad Sci USA 98:10314-9.

[3] = Cell death in combination with inhibitors of mitochondrial respiration and ATP synthase; assay type: cell-based
Source text: Elstrom R L et al. (2004) Cancer Res 64:3892-9.

human cancer cells = assay: Cancer cell migration, transwell migration and wound closure models; assay type: cell-based; conditions: model not specified
Experimental: Two models of cell migration were used, a transwell migration model and a wound closure model. Migration of cancer and endothelial cells was evaluated using 24-transwell Boyden chamber (Costar, Bedford, Mass.) with a polystyrene membrane (6.5 mm diameter, 10 μm thickness, and 8 μm pore size). Cells were suspended in serum-free media and seeded in the upper compartment of each well (2×10^4 cells/well) in the presence or absence of different compounds at the indicated concentrations. The lower compartment contained 600 μl of serum-free culture media supplemented with growth factors. After an 8-hr incubation at 37° C., cells were fixed and stained with 0.1% crystal violet. Non-migrating cells on the upper surface of the filter were removed, and the stained cells that migrated to the lower side were photographed using a phase-contrast microscope (Nikon, Japan) in five random fields. The cells were lysed with 10% acetic acid, and colorimetric determination was made at 595 nm using Wallac Victor 3 plate reader.
Cancer or endothelial cells were seeded into fibronectin-coated 96-well plates (2×10^4 cells/well). After reaching confluence, cell monolayers were scratched with a pipette tip to obtain a “wound”. The media and dislodged cells were aspirated and replaced by fresh serum-free media in the presence of growth factors, with or without compounds at different concentrations. After an 8-hr incubation at 37° C., cells were photographed using a phase-contrast microscope in five random fields. The width of wounded cell monolayers in images was measured and the inhibition rates of migration were calculated as inhibition rate=[1−(compound-treated group/control group)]×100%, and IC50 value was determined using Origin6 software (MicroCal, LLC, Northampton, Mass.).

U87MG cells [4] = assay: Combination with Akt kinase inhibitors in U87MG cells (western blot, ATP assay); assay type: cell-based, human
Experimental: U87MG cells were treated with 100 μM PIT-1, or 10 μM Akt inhibitor VIII (Calbiochem) or Akt inhibitor (Calbiochem), or 100 μM PIT-1 together with 10 μM Akt inhibitor VIII or Akt inhibitor, for 12 hr and then phosphorylation events were evaluated by western blot.

Akt PH domain [5] = molecular target: T1, Akt PH domain; assay: Fluorescence polarization (FP) PIP3/Akt PH domain binding assay; conditions: 15 nM TMR-conjugated PIP3, PITs 6.25-200 μM, 30 min
Source text: (§1) In order to identify compounds that disrupt the interaction between PIP3 and PH domains, a high-throughput fluorescence polarization (FP)-binding assay was developed using recombinant 1-123 amino acid N-terminal fragment of human Akt1 (also referred to herein simply as Akt), encompassing the PH domain (PH123 protein), and fluorescent […] PIP3 molecule. The amino acid sequence of human Akt1 is publicly available as, for example, GenBank Accession No. NP_001014432.1 (SEQ ID NO:1), and the corresponding DNA sequence is publicly available as, for example, GenBank Accession No. NM_001014432. Briefly, 5 μM recombinant GST fusion proteins containing 1-123 a.a. N-terminal fragment of human Akt1 (PH 123) or 100 nM 441-551 a.a. region of human PDK1 were incubated with 15 nM TMR-labeled PIP3, PIP2, or PIP5 in buffer containing 50 mM Tris-HCl (pH 7.5), 150 mM NaCl, and 5 mM b-ME for 15 min at room temperature in the dark. FP values were determined using Wallac Victor 3 plate reader. For the primary screen, 50,000 diverse small molecules from Harvard Institute of Chemistry and Cell Biology were screened (iccb.med.harvard.edu). Incubations were carried out for 1 hr. For secondary assays, PIT compounds were added at various concentrations (6.25, 12.5, 25, 50, 100, 150 and 200 μM), followed by a 30 min incubation. The inhibition rates were calculated as inhibition rate=[1−(compound-treated group/control group)]×100%, and IC50 value was determined using Origin6 software (MicroCal, LLC, Northampton, Mass.).
Target sequence in this assay (P31749 1-123): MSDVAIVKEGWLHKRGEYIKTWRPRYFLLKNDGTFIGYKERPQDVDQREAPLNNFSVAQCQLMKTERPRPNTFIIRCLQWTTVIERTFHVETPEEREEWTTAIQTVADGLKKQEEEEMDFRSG

PDK1 PH domain = PDK1 PH domain (Homo sapiens (Human), UniProt O15530); assay: FP PIP3/PDK1 PH domain binding assay; conditions: 15 nM TMR-conjugated PIP3, 100 nM PDK1 PH domain, 30 min
PDK1 PH domain, sequence (O15530 441-551): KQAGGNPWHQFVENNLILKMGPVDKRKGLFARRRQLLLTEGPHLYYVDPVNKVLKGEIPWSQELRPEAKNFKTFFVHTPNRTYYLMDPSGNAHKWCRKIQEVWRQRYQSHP
Source text: as §1

GRP1 PH domain = GRP1 PH domain (Homo sapiens, UniProt O43739); assay: FP PIP3/GRP1 PH domain binding assay; conditions: 15 nM TMR-conjugated PIP3, 100 nM GRP1 PH domain, 30 min
U87MG cells [6] = assay: cells; assay type: cell-based
Experimental: Based on the critical role of PIP3-dependent […] signaling in the regulation of cell survival, the effect of PIT-1 on the cancer cell viability was tested. Cancer cells were seeded into 96-well plates (white plates for ATP assay; black plates for fluorescent assay; clear plates for MTS assay) at the density of 5-10×10^3 cells per well in 100 μl of the appropriate media. Compounds were added at a series of concentrations and incubated for different times. For the ATP assay, a luminescence-based commercial kit (CellTiter-Glo, Promega, Madison, Wis.) was used. Thirty microliters of cell lysis/ATP detection reagent was added to each well, mixed for 10 min at room temperature, and the luminescence was measured using a Wallac Victor 3 plate reader (Perkin-Elmer, Wellesley, Mass.). For the MTS assay, a CellTiter 96 AQueous Non-Radioactive Cell Proliferation Assay Kit (Promega, Madison, Wis., USA) was used. Twenty microliters of the combined MTS/PMS solution was added into each well, incubated for 4 hr at 37° C., and the absorbance at 490 nm was measured using a Wallac Victor 3 plate reader. For the Sytox cell death assay, measuring loss of plasma membrane integrity, cells were incubated with 1 μM Sytox Green reagent (Molecular Probes, Eugene, Oreg.) for 30 min at 37° C. and the fluorescence intensity was measured using Wallac Victor 3 plate reader with excitation at 485 nm and emission at 545 nm. Next, 5 μl of 20% (v/v) Triton X-100 solution was added to each well and incubated for 1 hr at 37° C., and the signal was measured again. The ratio of values (percentage of dead cells in each well) before and after Triton X-100 treatment was calculated and normalized to the relevant controls not subjected to the cytotoxic stimuli. IC50 values were determined using Origin6 software (MicroCal, LLC, Northampton, Mass.).
To measure induction of cell death by PIT-1 derivatives, U87MG cells were incubated with PITs (1.56-300 μM) for 48 hr. Cell viability was determined using ATP assay.

[7] = Solubility (aqueous, cell media); assay type: physicochemical; conditions: 300 μM unencapsulated
Source text: The size of the DM-PIT-1-loaded micelles was about 15 nm with a narrow size distribution.

4T1 breast tumor = assay: Syngeneic 4T1 breast cancer growth in BALB/c mice; assay type: in vivo
Experimental: The effect of intravenous (i.v.) administration of both unencapsulated DM-PIT-1 in PBS and DM-PIT-1-M on the syngeneic 4T1 breast cancer growth in BALB/c mice was examined. 4T1 metastatic breast cancer cells were first cultured in vitro in DMEM medium containing 10% FBS and antibiotics. After re-suspension in PBS, the 4T1 cancer cells (8×10^4) were injected s.c. into axillary regions of BALB/c mice. The treatment with PIT-1 began on day 11 after inoculation of tumor cells, i.e., when tumors were palpable, but before tumors are precisely measurable (˜50 mm^3). Working solutions of all PIT-1-formulations were made in sterile 0.9% NaCl before injection into mice. […] If the tumor size reached approx. 1000 mm^3, the mice were euthanized using carbon dioxide (CO2) prior to cervical dislocation. Seven mice per group were used. The tumor volume (V) was measured every two days by microcaliper for 8 days. Tumor volume was calculated according to the formula (α×b^2)/2, where α is the longest and b is the shortest diameter of tumor, respectively. Tumor tissues were fixed in phosphate-buffered formalin, embedded in paraffin, cut in 4 μm thickness, and applied to slides. The slides were deparaffinized in xylenes using three changes for 5 min each, and hydrated gradually through graded alcohols: 100% ethanol twice for 10 min each, 95% ethanol twice for 10 min each, and then deionized water for 1 min with stirring. For antigen unmasking, slides were placed in a container, covered with 10 mM sodium citrate buffer, pH 6.0, and heated in a convection steamer for 1 hr. The slides were washed in deionized water three times for 2 min each, blocked with 5% normal goat blocking serum for 30 min, incubated with goat anti-CD31 primary antibody for 1 hr, and incubated with an Alexa Fluor 488-conjugated secondary antibody for 30 min. The slides were analyzed and photographed using a fluorescent microscope. TUNEL staining was performed using FragEL kit according to manufacturer's instructions (Calbiochem).

| SMILES | plasma membrane translocation of Akt PH domain (Akt PH domain [1]) | loss of viability in Akt1-expressing versus Akt1-3 triple knockout fibroblasts [2] | cell death with oligomycin, antimycin A, rotenone [3] | cancer cell migration (human cancer cells) | combination of Akt inhibitors VIII and X (U87MG cells [4]) | IC50 (Akt PH domain [5]) | IC50 (PDK1 PH domain) | IC50 (GRP1 PH domain) | IC50 (U87MG cells [6]; Homo sapiens, U-87 MG, U87MG cells, 48 hr, ATP assay, read-out: Cell Viability IC50) | activity compared to PIT-1 (U87MG cells [6]; cell death in U87MG cells, cell migration, PI3K-PDK1-Akt signaling) | precipitation in cell media [7] | reduction of tumor volume compared to control (4T1 breast tumor; day 8, 0.4 mg/kg/day i.v.) | tumor volume (4T1 breast tumor; day 8, 0.4 mg/kg/day i.v.) | tumor growth compared to control (4T1 breast tumor; i.v. daily 8 days, DM-PIT-1 0.4 mg/kg, DM-PIT-1-M 1 mg/kg, P<0.01) | tumor angiogenesis, CD31 loci (4T1 breast tumor; mouse, in vivo) |
| --- | --- | --- | --- | --- | --- | --- | --- | --- | --- | --- | --- | --- | --- | --- | --- |
| O=c1[nH]c2ccccc2n1C1CCN(Cc2ccc(-c3nc4cc5[nH]cnc5cc4nc3-c3ccccc3)cc2)CC1 [Akt inhibitor VIII] | Neither Akt inhibitor X nor allosteric inhibitor VIII blocked membrane translocation | comparable | synergized | lack thereof | no additive effect | – | – | – | – | – | – | – | – | – | – |
| Cc1cc(C)cc(C(=O)NC(=S)Nc2cc([N+](=O)[O-])ccc2O)c1 [DM-PIT-1] | – | – | – | – | – | 27.1 ± 3.2 µM | 80.5 ± 3.1 µM | 35.5 ± 3.8 µM | 33.9 ± 2.2 µM | increased activity in these assays compared to PIT-1 | significant precipitation | 58.1% | 380±52.3 mm^3 | significantly attenuated tumor growth | marked decrease in cancer angiogenesis |
